Data taken from patent US20070218460A1, “Method of Estimating Toxicity of Drug” (TAKEDA PHARMACEUTICAL COMPANY LIMITED, priority 2003, published 2007).

Experiments:
HepG2 cells [1] = assay: Highest concentration at which cells were viable after 72 hr exposure; format: cell-based, human
hpn = assay: Real-time quantitative PCR of PLsis marker gene expression; format: cell-based, human; details: HepG2 cells, 24 hr exposure, relative value, control group = 1.0, GAPDH internal standard, n=3
How it was run: (§1)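 For every test compound, cellular mRNA levels of the gene panel are determined by fluorescence-detected TaqMan PCR and adjusted to GAPDH. Primers and probe are each used at 200 nM, and differences from control are tested with a t-test (n=3).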

tagln = assay: as above; format: cell-based, human; details: HepG2 cells, 24 hr exposure, relative value, control group = 1.0, GAPDH internal standard, n=3
How it was run: as §1

fabp1 = assay: as above; format: cell-based, human; details: HepG2 cells, 24 hr exposure, relative value, control group = 1.0, GAPDH internal standard, n=3
How it was run: as §1

kiaa1001 = assay: as above; format: cell-based, human; details: HepG2 cells, 24 hr exposure, relative value, control group = 1.0, GAPDH internal standard, n=3
How it was run: as §1

serpina3 = assay: as above; format: cell-based, human; details: HepG2 cells, 24 hr exposure, relative value, control group = 1.0, GAPDH internal standard, n=3
How it was run: as §1

lss = assay: as above; format: cell-based, human; details: HepG2 cells, 24 hr exposure, relative value, control group = 1.0, GAPDH internal standard, n=3
How it was run: as §1

slc2a3 = assay: as above; format: cell-based, human; details: HepG2 cells, 24 hr exposure, relative value, control group = 1.0, GAPDH internal standard, n=3
How it was run: as §1

nr0b2 = assay: as above; format: cell-based, human; details: HepG2 cells, 24 hr exposure, relative value, control group = 1.0, GAPDH internal standard, n=3
How it was run: as §1

asah1 = assay: as above; format: cell-based, human; details: HepG2 cells, 24 hr exposure, relative value, control group = 1.0, GAPDH internal standard, n=3
How it was run: as §1

depp = assay: as above; format: cell-based, human; details: HepG2 cells, 24 hr exposure, relative value, control group = 1.0, GAPDH internal standard, n=3
How it was run: as §1

mgc4171 = assay: as above; format: cell-based, human; details: HepG2 cells, 24 hr exposure, relative value, control group = 1.0, GAPDH internal standard, n=3
How it was run: as §1

flj22362 = assay: as above; format: cell-based, human; details: HepG2 cells, 24 hr exposure, relative value, control group = 1.0, GAPDH internal standard, n=3
How it was run: as §1

HepG2 cells [2] = assay: Electron-microscopic examination of PLsis induction potential (myelin-like structure)

Row | Compound | addition concentration (highest concentration at which cells survived after 72 hr of culture) (HepG2 cells [1]) | expression variation rate hpn (hpn) | expression variation rate tagln (tagln) | expression variation rate fabp1 (fabp1) | expression variation rate kiaa1001 (kiaa1001) | expression variation rate serpina3 (serpina3) | expression variation rate lss (lss) | expression variation rate slc2a3 (slc2a3) | expression variation rate nr0b2 (nr0b2) | expression variation rate asah1 (asah1) | expression variation rate depp (depp) | expression variation rate mgc4171 (mgc4171) | expression variation rate flj22362 (flj22362) | frequency of appearance of myelin-like structure (HepG2 cells [2])
1 | CNCCC(Oc1ccc(C(F)(F)F)cc1)c1ccccc1 (centres unmarked) [fluoxetine] | 8.3 µmol/L | 2.39 | 0.20 | 2.80 | 1.93 | 1.73 | 3.51 | 0.09 | 2.70 | 6.55 | 3.08 | 1.34 | 2.15 | +++
2 | C1CCC(C(CC2CCCCN2)C2CCCCC2)CC1 (centres unmarked) [perhexiline] | 8.3 µmol/L | 2.22 | 0.26 | 2.49 | 1.98 | 2.50 | 3.10 | 0.22 | 2.09 | 3.12 | 2.55 | 1.93 | 3.42 | ++
3 | CC1COc2c(N3CCN(C)CC3)c(F)cc3c(=O)c(C(=O)O)cn1c23 (centres unmarked) [ofloxacin] | 25 µmol/L | 0.72 | 0.74 | 0.75 | 0.86 | 0.82 | 0.78 | 0.94 | 0.81 | 1.17 | 0.79 | 0.77 | 0.68 | −
4 | CSc1ccc2c(c1)N(CCC1CCCCN1C)c1ccccc1S2 (centres unmarked) [thioridazine] | 8.3 µmol/L | 2.85 | 0.46 | 5.07 | 5.79 | 2.46 | 2.03 | 0.38 | 0.77 | 1.36 | 2.02 | 1.32 | 1.57 | +
